Measurements reported in patent publication US20220187274A1, “NEMATODE TRAP PLATE AND USE THEREFOR” (priority 2019, published 2022).

Legend:
C. elegans [1] = test: Nematode trap plate (PASS) olfaction test, chemotaxis index to a volatile substance; type: in vivo, Caenorhabditis elegans
Protocol: (Method for Evaluating Test Result) On the basis of the number of nematodes caught in the fall-in cavity which number has been obtained in the above-described manner, a response of the nematodes is evaluated. In the olfaction test or gustation test for evaluating a response of the nematodes to a chemical substance or the like, it is possible to evaluate the response on the basis of, e.g., a chemotaxis index (it may sometimes be abbreviated as “C.I.”). The chemotaxis index, which is used to evaluate the taxis of the test subject to the chemical substance or the like, is defined by in the following manner. That is, the number of nematodes caught in a control fall-in cavity is subtracted from the number of nematodes caught in a fall-in cavity for the test subject so that a difference is yielded, and the difference is divided by the total number of nematodes caught in all the fall-in cavities. In a case where there exist two or more fall-in cavities for the test subject, the total number of nematodes caught in these fall-in cavities is considered as “the number of nematodes caught in the fall-in cavity for the test subject”. Similarly, in a case where there exist two or more control fall-in cavities, the total number of nematodes caught in these control fall-in cavities is considered as “the number of nematodes caught in the control fall-in cavity”. Specifically, the chemotaxis index (C.I.) can be obtained by the following formula, where Ni is the total number of nematodes caught in the fall-in cavity for the test subject and N2 is the total number of nematodes caught in the control fall-in cavity.
Chemotaxis index (C.I.)=(N1−N2)/(N1+N2).
In the Examples shown below, tests were conducted by using C. elegans as the nematodes, unless otherwise stated. In each of the Examples, a commercially-available circular plastic dish was used as the container of the nematode trap plate. The size of the plastic dish, the capacity (volume) of a solid medium mainly made of an agar, and the number of fall-in cavities to be formed were set as appropriate in consideration of the purpose of the test, the volume of a sample obtained, and the like. In each case, the fall-in cavities were formed in the shape of a cylinder having a diameter of approximately 5 mm. […] The following description will be made by using the names of the plates shown in Table 1 (plate A1, plate A2, plate B1, plate B2, plate B3, plate B4, and plate B5).
First, a plate A1 was produced that included (a) two fall-in cavities 2a formed in a left part of a solid medium so as to be arranged side by side along the outer periphery of the solid medium and (b) two fall-in cavities 2b formed in control positions in a right part of the solid medium in a similar manner to the fall-in cavities 2a. […]
Then, the response was evaluated. […]

C. elegans [2] = test: Conventional chemotaxis evaluation method on assay plate with sodium azide (Comparative Example 1); type: in vivo, Caenorhabditis elegans; conditions: Comparative Example 1, conventional method; undiluted solution and test solution with a large dilution factor; three tests
Protocol: As a comparative example, evaluation of a response of nematodes was conducted in accordance with a conventional chemotaxis evaluation method (e.g., Non-Patent Literature 1). […] Similarly to the test in Example 1, an undiluted solution of diacetyl and diluted solutions prepared by diluting diacetyl at five different concentrations were used as test solutions. One drop of the test solution was dripped on each of two positions (test solution spots) on a left half of a circle with a radius of 3 cm about the center of the assay plate. Meanwhile, the buffer solution serving as the control was dripped on each of positions (control spots) that were on a right half of the circle with a radius of 3 cm about the center of the assay plate and that were arranged point symmetrically. […] Based on the captured image of the entire assay plate, an example of which is shown in FIG. 11, the number of nematodes fixed under anesthesia was counted in each of test solution areas extending concentrically from the two test solution spots on the left part and control areas extending concentrically from the two control spots on the right part. […] The response of the nematodes was evaluated with use of the chemotaxis index (C.I.), which was used also in Example 1, assuming that the number of nematodes in the test solution areas was N1 and the number of nematodes in the control areas was N2. […]

[3] = tested on: hetero group H of free-living soil nematodes (collected at Takayama city, Gifu, Japan); test: Nematode trap plate olfaction test with soil nematodes other than C. elegans, group H; type: in vivo; conditions: Example 15, plate A1, 1 mM diluted solution, positive = attraction
Protocol: (§1) Example 15 was conducted for the purpose of studying applicability of the plate of the present invention to evaluation of a response of nematodes other than C. elegans. Specifically, the test was conducted to examine a response of a hetero group M of free-living soil nematodes (collected at Ogasawara village, Tokyo, Japan) and a hetero group H of free-living soil nematodes (collected at Takayama city, Gifu, Japan) with respect to a volatile substance. A plate A1 identical to that produced in Example 1 was produced. Left fall-in cavities 2a were filled with a test solution, whereas right fall-in cavities 2b were filled with a buffer solution as a control. The test solution used in Example 15 was a diluted solution (1 mM) of vanillin, which is a kind of volatile substance. […] Then, the plate was left at least for an hour under a light-shielded environment. […] The chemotaxis index (C.I.) was obtained in a similar manner to Example 1, and the response of the nematodes was evaluated. […] Note that the tests involving use of the nematode group M and the nematode group H were conducted independently.

[4] = tested on: hetero group M of free-living soil nematodes (collected at Ogasawara village, Tokyo, Japan); test: Nematode trap plate olfaction test with soil nematodes other than C. elegans, group M; type: in vivo; conditions: Example 15, plate A1, 1 mM diluted solution, negative = avoidance
Protocol: as §1

`CC(=O)C(C)=O` [diacetyl] was tested, and the “Chemotaxis index (C.I.)” value (C. elegans [1]; Example 1, plate A1, four other dilution concentrations among six, all three tests, positive = attraction) was “positive values”, the “Chemotaxis index (C.I.)” value (C. elegans [1]; Example 1, plate A1, two highest concentrations among six (undiluted 11.5 M to 100000-fold dilution), all three tests, negative = escaping) was “negative values” and the “Chemotaxis index (C.I.)” value (C. elegans [1]; Example 2, plate A2 (solid medium volume twice that of A1), six concentrations, undiluted to 100000-fold, three tests) was “the same results as in Example 1”. For the same molecule, the “Chemotaxis index (C.I.)” value (C. elegans [2]) was “a positive value was obtained in one case, and a negative value was obtained in another case”.

For `COc1cc(C=O)ccc1O` [vanillin], the “Chemotaxis index (C.I.)” value [3] was “positive C.I. value” and the “Chemotaxis index (C.I.)” value [4] was “negative C.I. value”.

`O=Cc1ccccc1` [benzaldehyde] was tested, and the “Chemotaxis index (C.I.)” value (C. elegans [1]; Example 3, plate B1, each of three dilutions from 10000-fold to 100000-fold of 9.8 M undiluted solution, mean of four tests, maximum 1.0) was “not less than 0.9”.
